# Experimental data published in patent publication US20100303887A1, “DHA and PEDF, a Therapeutic Composition for Nerve and Retinal Pigment Epithelial Cells” (priority 2007, published 2010).
# How the values were obtained:
# Bax = Bax expression in A2E-exposed ARPE-19 cells (Western blot); format: cell-based, human; conditions: NPD1 50 nM
# Bcl-2 = Bcl-2 expression in A2E-exposed ARPE-19 cells (Western blot); format: cell-based, human; conditions: NPD1 50 nM
# Description: (§1) Analysis of Bcl-2 and caspase-3 cleavage. Bcl-2 protein and caspase-3 cleavage were analyzed by Western-blot analysis. Also, ARPE-19 cells, stably transfected with a lentivirus construct containing the […] caspase 3 cleavage sequence, were used. In short, 15-20 μg equivalent of each cell extract were subjected to electrophoresis on an 8-16% gel (Invitrogen Corporation, Carlsbad, Calif.) at 125 volts for 2 hr. The proteins were transferred to nitrocellulose membranes at 30 volts for 70 minutes at 4° C. The membranes were probed with primary antibodies against Bcl-2 (Santa Cruz Biotechnology, Inc., Santa Cruz, Calif.) and cleaved caspase-3 (Asp-175) (Cell Signaling) at room temperature and treated for 20 minutes with the secondary antibody, goat anti-rabbit IgG: horseradish peroxidase, and horseradish peroxidase-conjugated anti-biotin antibody, then proteins were detected by using an ECL kit (Amersham Biosciences, Buckinghamshire, United Kingdom).
# (§2) Caspase cleavage and Bcl-2 changes triggered by A2E are restored by NPD1. […] NPD1 (50 nM) counteracted the effect of A2E (see Materials and Methods). Data is an average of relative density detection±SEM of six individuals. […] These findings indicate that NPD1 protects the RPE against A2E-induced apoptosis at the pre-mitochondrial level of the apoptosis cascade by altering Bcl-2 balance. […]
# ARPE-19 cells [1] = test: A2E-induced apoptosis in ARPE-19 cells (Hoechst 33258 staining); format: cell-based, human
# Description: Hoechst Staining. ARPE-19 cells were incubated with 2 μM Hoechst reagent dissolved in Lock's solution (Promega Corporation, Madison. Wis.) at 37° C. for 45 minutes before imaging. Cells were washed once with PBS and photographed using a Nikon DIAPHOT 200 microscope with fluorescence optics. Images were recorded by a Hamamatsu Color Chilled 3CCD camera and PHOTOSHOP 5.0 software (Adobe Systems, Mountain View, Calif.).
# (§3) A2E, a lipofusin component, accumulates in the RPE during aging, and, in an exaggerated manner, in age-related macular degeneration (AMD) and Stargardt macular dystrophy (an early onset form of AMD). As a consequence, RPE apoptosis precedes the demise of photoreceptors. […] Seventy-two (72) hours after plating, ARPE-19 cells were serum starved for 4 hours. A2E (20 μM) was added in the presence of 430 nM light and O2 (see Materials and Methods). Other cells were exposed instead to H2O2/TNFα. NPD1 was added prior to, or at different times after, A2E or H2O2/TNFα, up to 12 hours. Time of NPD1 addition is indicated by black arrows on FIG. 1A. Hoechst 33258 was analyzed at 15 hours. FIG. 1B illustrates the appearance of Hoechst 33258 positive cells upon exposure to A2E and the effect of NPD1. FIG. 1C is similar to FIG. 1B, except that H2O2/TNFα was used to trigger oxidative stress. […]
# ARPE-19 cells [2] = test: Cell viability using calcein (AM), ethidium homodimer and phase contrast microscopy after oxidative stress; format: cell-based, human; conditions: added up to 15 hr after triggering oxidative stress; data not shown
# Description: A2E-triggered oxidative stress precedes cell death. Since oxidative stress and/or inflammatory signaling are involved in early stages of retinal degenerations, oxidative stress, triggered by another experimental condition, serum starvation/H2O2/TNFα was explored (FIG. 1C). NPD1 also exerted protection in this experimental condition. […] What was surprising was the extended time window. […] (Data not shown)
# caspase-3 = test: Caspase-3 cleavage in A2E-exposed ARPE-19 cells (Western blot); format: cell-based, human; conditions: NPD1 50 nM
# Description: as §1, §2
# A2E oxiranes (epoxides) = test: A2E conversion to A2E oxiranes (epoxides) in ARPE-19 cells, LC-MS-MS; format: cell-based, human; conditions: NPD1 50 nM; light and oxygen
# Description: as §3, with “stress. FIG. 1D depicts the formation of oxiranes (epoxides) upon exposure of ARPE-19 cells to A2E in the presence of O2 and 430 nM light for 15 minutes followed by 60 minutes incubation in the dark.” for “stress.”
# To study the mechanism of NPD1-mediated RPE protection against A2E oxidative stress, the possibility that A2E conversion to A2E oxiranes (epoxides) may be the target of NPD1 was tested. […] Multiple oxiranes (epoxides), up to nonaoxiranes, were detected by MS-MS in ARPE-19 cells exposed to light and oxygen (FIG. 1D).
# ARPE-19 cells [3] = test: Serum starvation/H2O2/TNFα oxidative stress-induced apoptosis in ARPE-19 cells (Hoechst staining); format: cell-based, human; conditions: NPD1 added eight hours after triggering oxidative stress
# Description: Exposure of ARPE-19 cells to growth factors. Cells at 75-80% confluence (72 hr growth in DMEM/F12+10% FBS) were serum-starved for 2 hr before exposure to growth factors. The serum-starved cells were treated with TNF-α (Sigma-Aldrich Corporation, St. Louis, Mo.) (10 ng/ml) and H2O2 (600 μM) to induce oxidative stress and challenged with increasing concentrations (10, 30, 50 nM) and PEDF (Chemicon International, Temecula, Calif.) (50 ng/ml) simultaneously with oxidative stress for 4 hr before harvesting for protein analysis. Cell extracts were made and protein concentrations were adjusted by Bio-Rad protein reagent and used for Western-blot analysis. […] Cells were analyzed to detect Hoechst-positive apoptotic cells.
# Hoechst Staining. […] Cells were washed once with PBS and photographed using a Nikon DIAPHOT 200 microscope with fluorescence optics. Images were recorded by a Hamamatsu Color Chilled 3CCD camera and PHOTOSHOP 5.0 software (Adobe Systems, Mountain View, Calif.).
# A2E, a lipofusin component, accumulates in the RPE during aging, and, in an exaggerated manner, in age-related macular degeneration (AMD) and Stargardt macular dystrophy (an early onset form of AMD). […] Hoechst 33258 was analyzed at 15 hours. […]
# NPD1 synthesis = NPD1 synthesis and release from polarized primary human RPE cell monolayers (lipidomic analysis); format: cell-based
# Description: Human RPE cells. Cultures of retinal pigment epithelial (RPE) cells were prepared. RPE cells were seeded onto Millicell-HA culture plate inserts (Millipore, Bradford, Mass.), placed in 24-well plates, and allowed to reach confluence. Consent for use of tissue for research was obtained in compliance with Federal and State law and institutional regulations. Cultures were maintained in Chee's essential replacement medium until the experiments were performed as described in J. Hu and D. Bok (2001) Mol Vis 7:14-19. The medium includes Eagle's minimal essential medium with calcium (MEM, Irvine Scientific, Irvine, Calif.), 1% heat-inactivated calf serum (JRH Bioscience, Lennexo, Kans.), amino acid supplements, and 1% bovine retinal extract. The Millicell-HA filter inserts allow separate manipulation of the culture media bathing the apical and basal surfaces of the RPE monolayer and measurement of the transepithelial resistance (TER), which provides a measure of cell differentiation and confluency. Cultures were used for experiments once they developed a TER of at least 400 Ω·cm^2, as measured by an Epithelial Volt-ohmmeter (EVOM, World Precision Instruments, New Haven, Conn.).
# Exposure of RPE cells to growth factors. […] […] The lower chamber was filled with 500 μl media (bathing the basal cell monolayer surface) containing 0.1% HSA. Cells were incubated for 72 hours, then apical and basal media were removed and collected for analysis. After allowing the cells to rest for at least 72 hours on fresh media, the experiments were repeated.
# Lipidomic analysis. Human RPE primary cell cultures or ARPE-19 cells were separated from culture media and washed with 1 ml PBS. After addition of 1 ml methanol, cells were scraped from plates or millicell membranes and collected for lipid extraction. Media was spun-down to separate cell debris, then 350 μl were collected in 1 ml of cold chloroform:methanol (1:1). Protein precipitates were then separated by centrifugation at 1500×g (5 min, 4° C.). Lipid extracts were collected, and kept under nitrogen at −80° C. until solid-phase purification; extracts were pre-equilibrated at pH 3.0 in 10% methanol/water, then loaded to 500 mg C18 columns (Varian, Inc., Palo Alto, Calif.), and eluted with 1% methanol/ethyl acetate. Eluates were concentrated on a N2 stream evaporator. Samples were loaded to a liquid chromatograph-tandem mass spectrometer (LC-TSQ Quantum, Thermo-Finnigan; Thermo Fisher Scientific, Waltham, Mass.) installed with a Biobasic-AX column (Thermo-Hypersil-Keystone, Thermo Fisher Scientific, Waltham, Mass.) (100 mm\2.1 mm, 5-μm particle sizes), and eluted in a linear gradient [100% solution A (40:60:0.01 methanol/water/acetic acid pH 4.5) to 100% solution B (99.99:0.01 methanol/acetic acid)], at a flow rate of 300 μl/min for 30 minutes. LC effluents were diverted to an electro-spray-ionization probe (ESI) on a TSQ Quantum (Thermo-Finnigan, Thermo Fisher Scientific, Waltham, Mass.) triple quadrupole mass spectrometer. NPD1 and resolving D1 were obtained by biogenic synthesis as described in N. G. Bazan, D. L. Birkle, and T. S. Reddy (1984) Biochem Biophys Res Commun. 125:741-74, and V. L. Marcheselli et al. (2003) J. Biol. Chem. 278:43807-43817. Erratum in: (2003) J Biol Chem 278:51974. Other lipid standards (Cayman Chem. Ann Arbor, Mich.) were used for tuning and optimization and to create calibration curves. The instrument was set on full-scan mode, to detect parent ions, and selected reaction mode (SRM) for quantitative analysis, to detect product ions, simultaneously. The selected parent/product ions (m/z) and collision energy (v) obtained by running on negative ion detection mode were: 359.2/153.1/20 for NPD1, 343.2/281.2/18 for resolving D1, 351.2/195.0/22 for 20HO-LTB4 (used as internal standard), 327.2/283.3/16 for DHA, 311.3/267.3/20 Arachidonic Acid-d8 (used as internal standard, IS).
# Neurotrophins activated NPD1 synthesis in cultured primary human RPE cells. […]
# [4] = increasing concentrations, 72 hr
molecule,measurement,setting,value
"CC/C=C\C[C@H](O)\C=C/C=C/C=C/[C@H](O)C/C=C\C/C=C\CCC(=O)O [NPD1, Neuroprotectin D1]",Effect on Bax expression,Bax,showed a tendency to decrease Bax expression
same,Effect on Bcl-2 protein expression,Bcl-2,increased Bcl-2 protein expression
same,Cytoprotection against A2E-induced apoptosis (Hoechst 33258 positive cells),"ARPE-19 cells [1]; A2E 20 μM, 430 nm light and O2, Hoechst at 15 hours",cytoprotective
same,"Protection against A2E-induced apoptosis, delayed addition",ARPE-19 cells [1]; NPD1 50 nM added 6 hours after A2E,ensures protection
same,"Protection of cell viability (calcein AM, ethidium homodimer, phase contrast)",ARPE-19 cells [2],showed protection
same,Effect on A2E-enhanced caspase-3 cleavage,caspase-3,counteracted A2E-enhanced caspase-3 cleavage
same,Effect on A2E conversion to A2E oxiranes (epoxides),A2E oxiranes (epoxides),did not affect this conversion
same,"Protection against H2O2/TNFα oxidative stress-induced apoptosis, delayed addition",ARPE-19 cells [3],resulted in protection
"CCCCC/C=C\C/C=C\C/C=C\C/C=C\CCCC(=O)O [arachidonic acid, reference compound]","NPD1 synthesis and release, fatty acid added to the apical medium","NPD1 synthesis; 72 hr, DHA 0 to 200 nM, arachidonic acid under similar conditions",failed to induce NPD1 synthesis
same,"NPD1 synthesis, arachidonic acid in the presence of PEDF",NPD1 synthesis; added arachidonic acid with PEDF,did not stimulate NPD1 synthesis
"CC/C=C\C/C=C\C/C=C\C/C=C\C/C=C\C/C=C\CCC(=O)O [DHA, docosahexaenoic acid]",Cellular NPD1 content (percentile distribution of total NPD1),NPD1 synthesis; 200 nM DHA (25% when no DHA was added),7%
same,DHA concentration at which NPD1 in the apical media reaches a maximum,NPD1 synthesis; DHA treatment on the apical media,50 nM
"CNTF: ciliary neurotrophic factor, a neurotrophin (protein, UniProt P26441 1-200, looked up) Ciliary neurotrophic factor: MAFTEHSPLTPHRRDLCSRSIWLARKIRSDLTALTESYVKHQGLNKNINLDSADGMPVASTDQWSELTEAERLQENLQAYRTFHVLLARLLEDQQVHFTPTEGDFHQAIHTLLLQVAAFAYQIEELMILLEYKIPRNEADGMPINVGDGGLFEKKLWGLKVLQELSQWTVRSIHDLRFISSHQTGIPARGSHYIANNKKM","NPD1 release, neurotrophin added to the apical medium",NPD1 synthesis; [4],concentration-dependent increases in NPD1 release only on the apical side
same,"NPD1 release, neurotrophin added to the basal medium",NPD1 synthesis; [4],much less NPD1 release on the apical side
